Data set [1] deals with T1, PI3Kδ (Homo sapiens, UniProt O00329).
T1 construct: purchased Millipore Ltd (Billerica, MA)
In words: PI3K enzyme inhibitory activity in the cell free assay (ADP-Glo Kinase Assay). Particulars: cell free enzymatic assay; for IC50: ATP 80 μM, read-out: Enzymatic Delta IC50; for Ki: read-out: Enzymatic Delta Ki. In kind it is biochemical.

Data set [2] has as its system PI3Kδ-AKT pathway endogenously expressed on THP-1 cells. In words: PI3Kδ enzyme inhibitory activity in the THP-1 assay (M-CSF stimulated pAKT, HTRF). In kind it is cell-based. Particulars: for IC50: Homo sapiens, THP-1 cells, M-CSF 2.5 ng/mL, pAKT Ser473, read-out: THP-1 IC50 nM Cellular; for Delta cell drop-off (Cellular/enzymatic activity = THP-1 IC50 nM/Delta Ki nM): ratio THP-1 IC50 / Delta Ki.

Data set [3] concerns Ovalbumin (OVA) induced lung eosinophilia. In words: Rat model of ovalbumin (OVA) induced lung eosinophilia (WET administration, saline suspension i.t.). In kind it is in vivo, Brown Norway rats.
Data set [4] in a line: Lung retention. Particulars: reason why not tested in OVA model.
Data set [5] concerns the target T1, PI3Kδ. Particulars: cell free assay; reproduced from WO2015091685; read-out: PI3K delta inhibition; cited from earlier work.
Data set [6] deals with T2, PI3Kα (Homo sapiens, UniProt P42336).
T2 construct: purchased Millipore Ltd (Billerica, MA)
T2 sequence (P42336 whole entry): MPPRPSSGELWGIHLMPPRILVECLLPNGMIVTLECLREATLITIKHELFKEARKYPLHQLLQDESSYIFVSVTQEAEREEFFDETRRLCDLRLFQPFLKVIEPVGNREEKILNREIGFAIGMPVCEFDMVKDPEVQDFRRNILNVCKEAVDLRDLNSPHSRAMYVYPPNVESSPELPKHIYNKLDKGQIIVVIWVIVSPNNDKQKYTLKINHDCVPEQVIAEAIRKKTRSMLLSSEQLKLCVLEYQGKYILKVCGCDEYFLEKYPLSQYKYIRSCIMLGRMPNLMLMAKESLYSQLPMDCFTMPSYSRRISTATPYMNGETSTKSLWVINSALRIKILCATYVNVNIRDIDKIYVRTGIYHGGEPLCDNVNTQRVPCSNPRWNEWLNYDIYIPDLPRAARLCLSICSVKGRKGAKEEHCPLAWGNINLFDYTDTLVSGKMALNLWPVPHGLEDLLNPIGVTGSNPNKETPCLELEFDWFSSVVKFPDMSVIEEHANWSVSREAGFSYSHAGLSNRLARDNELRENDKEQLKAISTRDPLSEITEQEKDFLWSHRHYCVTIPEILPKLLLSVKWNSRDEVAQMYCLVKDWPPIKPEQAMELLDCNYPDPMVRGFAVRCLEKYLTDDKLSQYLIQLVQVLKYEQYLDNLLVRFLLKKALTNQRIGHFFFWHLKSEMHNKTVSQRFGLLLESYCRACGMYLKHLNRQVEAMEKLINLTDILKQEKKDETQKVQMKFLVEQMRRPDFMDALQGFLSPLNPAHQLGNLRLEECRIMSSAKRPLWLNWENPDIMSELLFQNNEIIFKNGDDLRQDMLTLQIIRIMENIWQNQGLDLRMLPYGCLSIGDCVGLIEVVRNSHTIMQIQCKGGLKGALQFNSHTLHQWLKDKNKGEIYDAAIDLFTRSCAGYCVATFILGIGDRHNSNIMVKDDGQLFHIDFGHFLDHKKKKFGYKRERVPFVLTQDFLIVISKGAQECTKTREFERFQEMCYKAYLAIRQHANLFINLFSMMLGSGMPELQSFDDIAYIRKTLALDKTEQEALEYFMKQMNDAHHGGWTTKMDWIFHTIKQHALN
Particulars: cell free assay; reproduced from WO2015091685; read-out: PI3K alpha inhibition; cited from earlier work.

Data set [7] addresses T3, PI3Kγ (Homo sapiens, UniProt P48736).
T3 construct: purchased Millipore Ltd (Billerica, MA)
Particulars: cell free assay; reproduced from WO2015091685; read-out: PI3K gamma inhibition; cited from earlier work.

Data set [8] deals with T4, PI3Kβ (Homo sapiens, UniProt P42338).
T4 construct: purchased Millipore Ltd (Billerica, MA)
T4 sequence (P42338 whole entry): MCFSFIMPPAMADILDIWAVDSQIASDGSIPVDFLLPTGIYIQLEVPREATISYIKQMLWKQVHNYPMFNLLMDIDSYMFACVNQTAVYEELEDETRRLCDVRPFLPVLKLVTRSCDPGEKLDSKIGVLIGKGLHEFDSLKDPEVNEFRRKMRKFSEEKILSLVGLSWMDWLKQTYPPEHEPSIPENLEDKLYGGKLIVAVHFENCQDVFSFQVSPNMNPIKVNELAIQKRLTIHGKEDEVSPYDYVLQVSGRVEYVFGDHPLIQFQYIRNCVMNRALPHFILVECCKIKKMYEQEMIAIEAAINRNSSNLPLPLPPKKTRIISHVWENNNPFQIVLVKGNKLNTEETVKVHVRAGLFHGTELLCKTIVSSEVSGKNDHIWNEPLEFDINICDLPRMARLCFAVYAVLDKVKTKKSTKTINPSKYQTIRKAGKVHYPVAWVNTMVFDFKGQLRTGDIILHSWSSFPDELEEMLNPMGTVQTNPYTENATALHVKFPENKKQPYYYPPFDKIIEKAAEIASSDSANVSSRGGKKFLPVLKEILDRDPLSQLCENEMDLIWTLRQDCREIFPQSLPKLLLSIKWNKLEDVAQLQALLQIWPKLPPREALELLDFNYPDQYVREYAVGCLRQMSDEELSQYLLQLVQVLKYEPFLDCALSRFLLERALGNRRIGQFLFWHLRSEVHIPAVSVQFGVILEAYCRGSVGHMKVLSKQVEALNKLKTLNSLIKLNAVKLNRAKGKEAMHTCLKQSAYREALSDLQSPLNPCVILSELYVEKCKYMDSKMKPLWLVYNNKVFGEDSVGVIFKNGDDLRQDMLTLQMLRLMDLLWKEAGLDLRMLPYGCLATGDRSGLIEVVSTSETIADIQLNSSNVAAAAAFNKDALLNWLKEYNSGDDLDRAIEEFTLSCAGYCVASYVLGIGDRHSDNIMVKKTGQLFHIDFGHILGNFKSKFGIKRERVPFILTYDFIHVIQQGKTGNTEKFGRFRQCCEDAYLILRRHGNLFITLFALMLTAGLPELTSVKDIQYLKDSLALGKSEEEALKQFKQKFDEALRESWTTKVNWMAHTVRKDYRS
Particulars: cell free assay; reproduced from WO2015091685; read-out: PI3K beta inhibition; cited from earlier work.

The mark [9] stands for this setting: administered 12 h before OVA challenge, 0.1 μmol/kg (ED80) for compounds of the invention.

Data on eleven molecules can be found in patent US12527797B2, “Isochromene derivatives as phosphoinositide 3-kinases inhibitors” (CHIESI FARMACEUTICI S.P.A., priority 2019, dated 2026).

Like-named read-outs stand apart in the source and are kept apart here.

T1 sequence (O00329 whole entry): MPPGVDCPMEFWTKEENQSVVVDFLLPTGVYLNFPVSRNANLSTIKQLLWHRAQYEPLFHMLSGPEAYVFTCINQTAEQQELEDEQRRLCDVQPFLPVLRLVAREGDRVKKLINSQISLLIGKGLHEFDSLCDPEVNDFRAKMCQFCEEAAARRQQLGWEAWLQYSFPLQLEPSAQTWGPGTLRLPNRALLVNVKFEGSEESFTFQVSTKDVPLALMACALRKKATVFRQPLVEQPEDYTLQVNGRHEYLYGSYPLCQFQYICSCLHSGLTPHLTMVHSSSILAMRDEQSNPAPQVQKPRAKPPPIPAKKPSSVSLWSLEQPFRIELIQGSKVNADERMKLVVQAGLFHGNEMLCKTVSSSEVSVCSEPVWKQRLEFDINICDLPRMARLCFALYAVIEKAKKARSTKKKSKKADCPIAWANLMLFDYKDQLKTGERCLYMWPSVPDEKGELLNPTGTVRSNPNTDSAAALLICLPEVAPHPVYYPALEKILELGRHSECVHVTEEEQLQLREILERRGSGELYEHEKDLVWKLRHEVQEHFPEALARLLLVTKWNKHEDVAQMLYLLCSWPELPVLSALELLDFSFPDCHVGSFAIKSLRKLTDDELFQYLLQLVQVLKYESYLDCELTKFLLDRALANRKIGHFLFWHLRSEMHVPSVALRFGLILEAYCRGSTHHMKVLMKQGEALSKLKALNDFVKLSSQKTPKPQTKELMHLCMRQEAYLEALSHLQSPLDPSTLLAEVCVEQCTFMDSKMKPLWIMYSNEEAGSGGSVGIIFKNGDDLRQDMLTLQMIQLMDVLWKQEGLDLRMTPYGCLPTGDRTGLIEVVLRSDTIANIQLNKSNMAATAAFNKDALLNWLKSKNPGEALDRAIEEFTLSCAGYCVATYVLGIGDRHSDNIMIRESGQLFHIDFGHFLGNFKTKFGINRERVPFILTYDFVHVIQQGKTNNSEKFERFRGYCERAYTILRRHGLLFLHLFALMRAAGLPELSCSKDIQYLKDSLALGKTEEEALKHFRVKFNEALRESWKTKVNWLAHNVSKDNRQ
T1 sequence (P27986 whole entry partner): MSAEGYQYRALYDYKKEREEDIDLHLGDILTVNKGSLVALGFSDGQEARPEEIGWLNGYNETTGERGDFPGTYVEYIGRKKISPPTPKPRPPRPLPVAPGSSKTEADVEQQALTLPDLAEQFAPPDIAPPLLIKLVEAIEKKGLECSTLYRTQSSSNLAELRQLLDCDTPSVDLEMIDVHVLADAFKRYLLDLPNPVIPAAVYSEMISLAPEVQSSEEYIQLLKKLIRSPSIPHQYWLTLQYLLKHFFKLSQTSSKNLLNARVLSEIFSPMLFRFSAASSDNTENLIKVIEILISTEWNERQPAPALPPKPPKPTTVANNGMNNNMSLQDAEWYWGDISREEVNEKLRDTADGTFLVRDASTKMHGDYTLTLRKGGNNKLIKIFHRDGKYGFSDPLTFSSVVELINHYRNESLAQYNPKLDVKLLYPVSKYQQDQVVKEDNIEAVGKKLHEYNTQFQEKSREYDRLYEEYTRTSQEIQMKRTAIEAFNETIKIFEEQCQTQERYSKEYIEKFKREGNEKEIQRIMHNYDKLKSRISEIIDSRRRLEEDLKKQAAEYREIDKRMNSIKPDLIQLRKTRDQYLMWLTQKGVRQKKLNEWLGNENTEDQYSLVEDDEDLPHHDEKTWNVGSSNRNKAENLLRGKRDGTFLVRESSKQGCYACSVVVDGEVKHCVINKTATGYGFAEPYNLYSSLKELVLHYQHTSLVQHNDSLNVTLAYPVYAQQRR
T3 sequence (P48736 whole entry): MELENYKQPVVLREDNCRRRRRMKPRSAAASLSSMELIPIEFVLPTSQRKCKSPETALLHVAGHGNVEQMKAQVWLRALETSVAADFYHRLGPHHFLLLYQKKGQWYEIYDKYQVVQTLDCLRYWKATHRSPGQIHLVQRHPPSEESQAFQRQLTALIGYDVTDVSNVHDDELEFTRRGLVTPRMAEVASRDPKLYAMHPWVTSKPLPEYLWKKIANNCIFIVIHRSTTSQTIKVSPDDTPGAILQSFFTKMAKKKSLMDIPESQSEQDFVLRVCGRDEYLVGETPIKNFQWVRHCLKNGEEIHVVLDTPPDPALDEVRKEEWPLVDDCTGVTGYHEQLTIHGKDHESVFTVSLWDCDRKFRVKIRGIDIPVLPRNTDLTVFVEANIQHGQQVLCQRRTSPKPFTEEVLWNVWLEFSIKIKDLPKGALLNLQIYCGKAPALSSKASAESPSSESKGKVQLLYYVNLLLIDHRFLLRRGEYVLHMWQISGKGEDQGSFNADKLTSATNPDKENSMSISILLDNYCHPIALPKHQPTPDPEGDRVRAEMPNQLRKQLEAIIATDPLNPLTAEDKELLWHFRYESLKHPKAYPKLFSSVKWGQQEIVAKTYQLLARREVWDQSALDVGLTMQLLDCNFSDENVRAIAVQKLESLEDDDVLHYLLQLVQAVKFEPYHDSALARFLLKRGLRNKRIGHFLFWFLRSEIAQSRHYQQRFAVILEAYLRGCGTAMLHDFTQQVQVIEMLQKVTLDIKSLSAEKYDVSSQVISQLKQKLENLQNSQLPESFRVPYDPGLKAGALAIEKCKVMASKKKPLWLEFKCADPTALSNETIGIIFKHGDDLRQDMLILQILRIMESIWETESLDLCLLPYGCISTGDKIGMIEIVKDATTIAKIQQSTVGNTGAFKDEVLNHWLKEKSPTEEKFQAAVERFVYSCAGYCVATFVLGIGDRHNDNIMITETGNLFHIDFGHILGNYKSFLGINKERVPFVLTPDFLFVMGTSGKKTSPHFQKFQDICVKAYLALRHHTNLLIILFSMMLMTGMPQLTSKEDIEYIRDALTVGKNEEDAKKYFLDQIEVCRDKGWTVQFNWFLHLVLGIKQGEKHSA

Consider `CC(c1oc(=O)c2ccccc2c1-c1ccc(F)c(CN2CCN(C)CC2)c1)n1nc(-c2cncc(O)c2)c2c(N)ncnc21` (stereo not drawn) [Example 5, 3-{1-[4-Amino-3-(5-hydroxypyridin-3-yl)-1H-pyrazolo[3,4-d]pyrimidin-1-yl]ethyl}-4-{4-fluoro-3-[(4-methylpiperazin-1-yl)methyl]phenyl}-1H-isochromen-1-one], for which, in data set [1], the IC50 worked out at 1 nM and the Ki worked out at 0.5 nM. Moreover, in data set [2], the IC50 worked out at 1.8 nM and the “Delta cell drop-off (Cellular/enzymatic activity = THP-1 IC50 nM/Delta Ki nM)” value came out at 3.6.
`CC(c1oc(=O)c2ccccc2c1-c1cccc(CN2CCN(C)CC2)c1)n1nc(-c2cc(O)cc(F)c2)c2c(N)ncnc21` (single isomer, unassigned) [Comparative example 1, 3-(1-(4-amino-3-(3-fluoro-5-hydroxyphenyl)-1H-pyrazolo[3,4-d]pyrimidin-1-yl)ethyl)-4-(3-((4-methylpiperazin-1-yl)methyl)phenyl)-1H-isochromen-1-one, reference compound]: in data set [1], the IC50 amounted to 2.2 nM and the Ki turned out to be 1.1 nM. Moreover, in data set [3] (setting [9]), the “% of inhibition (eosinophil recruitment in BALF)” value (“% of inhibition” for short) is reported as 0% (Not durable). Further, in data set [2], the IC50 worked out at 1.8 nM and the “Delta cell drop-off (Cellular/enzymatic activity = THP-1 IC50 nM/Delta Ki nM)” value amounted to 1.6.
Take `CC(c1oc(=O)c2ccccc2c1-c1cccc(CN(C)C)c1)n1nc(-c2cncc(O)c2)c2c(N)ncnc21` (single isomer, unassigned) [Example 2a, 3-(1-(4-amino-3-(5-hydroxypyridin-3-yl)-1H-pyrazolo[3,4-d]pyrimidin-1-yl)ethyl)-4-(3-((dimethylamino)methyl)phenyl)-1H-isochromen-1-one]: the “% of inhibition” value in data set [3] (setting [9]) is 57%. In data set [2], the IC50 worked out at 0.6 nM and the “Delta cell drop-off (Cellular/enzymatic activity = THP-1 IC50 nM/Delta Ki nM)” value amounted to 1.2.
As for `CC(c1oc(=O)c2ccccc2c1-c1cccc([C@H]2CCCN2C)c1)n1nc(-c2cncc(O)c2)c2c(N)ncnc21` (single isomer, unassigned) [Example 4a], in data set [1], the IC50 came out at 0.3 nM and the Ki was found to be 0.1 nM. Besides, in data set [2], the IC50 came to 1 nM and the “Delta cell drop-off (Cellular/enzymatic activity = THP-1 IC50 nM/Delta Ki nM)” value is 10.
Take `CC(c1oc(=O)c2ccccc2c1-c1ccccc1)n1nc(-c2cncc(O)c2)c2c(N)ncnc21` (single isomer, unassigned) [Comparative example 2, reference compound]: the lung retention result in data set [4] was “Compound not even tested in OVA model for Insufficient lung retention****”. Moreover, the IC50 in data set [2] is 1.6 nM.
As to `CC(c1cccc(-c2c(C(C)n3nc(-c4cncc(O)c4)c4c(N)ncnc43)oc(=O)c3ccccc23)c1)N(C)C` (stereo not drawn) [Example 7, 3-(1-(4-Amino-3-(5-hydroxypyridin-3-yl)-1H-pyrazolo[3,4-d]pyrimidin-1-yl)ethyl)-4-(3-(1-(dimethylamino)ethyl)phenyl)-1H-isochromen-1-one], in data set [1], the IC50 came to 1.6 nM and the Ki worked out at 0.8 nM. Besides, in data set [2], the IC50 turned out to be 3.9 nM and the “Delta cell drop-off (Cellular/enzymatic activity = THP-1 IC50 nM/Delta Ki nM)” value was 4.9.
In the same order, the values of `CC(c1oc(=O)c2ccccc2c1-c1ccc(Cl)c(CN(C)C)c1)n1nc(-c2cncc(O)c2)c2c(N)ncnc21` (stereo not drawn) [Example 3, 3-{1-[4-Amino-3-(5-hydroxypyridin-3-yl)-1H-pyrazolo[3,4-d]pyrimidin-1-yl]ethyl}-4-{4-chloro-3-[(dimethylamino)methyl]phenyl}-1H-isochromen-1-one] are 0.7 nM, 0.4 nM, 3.9 nM and 9.7.
In the same order, the values of `CC(c1oc(=O)c2ccccc2c1-c1cc(F)cc(CN2CCN(C)CC2)c1)n1nc(-c2cncc(O)c2)c2c(N)ncnc21` (stereo not drawn) [Example 6, 3-(1-(4-Amino-3-(5-hydroxypyridin-3-yl)-1H-pyrazolo[3,4-d]pyrimidin-1-yl)ethyl)-4-(3-fluoro-5-((4-methylpiperazin-1-yl)methyl)phenyl)-1H-isochromen-1-one] are 0.8 nM, 0.4 nM, 3 nM and 7.5.
In the case of `CC(c1oc(=O)c2ccccc2c1-c1cccc(CN2CCN(C)CC2)c1)n1nc(-c2cc(O)cc(F)c2)c2c(N)ncnc21` (racemic) [Example 142, 3-(1-(4-amino-3-(3-fluoro-5-hydroxyphenyl)-1H-pyrazolo[3,4-d]pyrimidin-1-yl)ethyl)-4-(3-((4-methylpiperazin-1-yl)methyl)phenyl)-1H-isochromen-1-one], the IC50 was < 10 nM in data set [5], > 1000 nM in data set [6], > 1000 nM in data set [7] and > 1000 nM in data set [8].
Consider `CC(c1oc(=O)c2ccccc2c1-c1cccc(CN2CCN(C)CC2)c1)n1nc(-c2cncc(O)c2)c2c(N)ncnc21` (single isomer, unassigned) [Example 1a, 3-{1-[4-Amino-3-(5-hydroxypyridin-3-yl)-1H-pyrazolo[3,4-d]pyrimidin-1-yl]ethyl}-4-{3-[(4-methylpiperazin-1-yl)methyl]phenyl}-1H-isochromen-1-one], for which the “% of inhibition” value in data set [3] (setting [9]) was 55%. In addition, in data set [2], the IC50 amounted to 2.8 nM and the “Delta cell drop-off (Cellular/enzymatic activity = THP-1 IC50 nM/Delta Ki nM)” value was determined as 3.1.
`CC(c1oc(=O)c2ccccc2c1-c1cccc(CN(C)C)c1)n1nc(-c2cc(O)cc(F)c2)c2c(N)ncnc21` (single isomer, unassigned) [Comparative example 3, reference compound]: the “% of inhibition” value in data set [3] (administered 2 h before OVA challenge, ns = non-significant) is 34% ns***. Also, the IC50 in data set [2] was 1.5 nM.
